This passage reports T/C results from PubChem BioAssay AID256 (DTP/NCI, 2004).

The test relates to CD2F1 mice, L1210 leukemia ip, survival T/C. In words: NCI In Vivo Anticancer Drug Screen. Data for tumor model L1210 Leukemia (intraperitoneal) in CD2F1 (CDF1) mice. The settings on record: higher = longer survival. An outline of the steps:
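Tumor-bearing mice (transplanted tumor) were split into treated and vehicle control groups, and the measured endpoint of each treated group was divided by that of its vehicle controls.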

[1] abbreviates: endpoint: mean survival time, dose: 100.0 mg/kg/injection, schedule: Q04DX003 (ip), vehicle: saline with Tween-80.
Where [2] appears, read: endpoint: mean survival time, dose: 200.0 mg/kg/injection, schedule: Q04DX003 (ip), vehicle: saline with Tween-80.
Where [3] appears, read: endpoint: mean survival time, dose: 400.0 mg/kg/injection, schedule: Q04DX003 (ip), vehicle: saline with Tween-80.
[4] abbreviates: endpoint: mean survival time, dose: 50.0 mg/kg/injection, schedule: Q01DX009 (ip), vehicle: saline.
The mark [5] stands for this setting: endpoint: mean survival time, dose: 100.0 mg/kg/injection, schedule: Q01DX009 (ip), vehicle: saline.
Where [6] appears, read: endpoint: mean survival time, dose: 200.0 mg/kg/injection, schedule: Q01DX009 (ip), vehicle: saline.

The structures appear in SMILES notation. Several values for one entry are separate records, joined by “and”; a condition that tells them apart may be missing. Equal entries are not always repeated. Toxic doses and inconclusive results are not listed. Residues, ends and D or L forms follow the SMILES beside them. *: point of attachment. Trt = c1ccc(C(c2ccccc2)(c2ccccc2)*)cc1; Cbz = O=C(OCc1ccccc1)*

Take `[S-]c1n[n+](-c2ccccc2)c(-c2ccccc2)s1`: the T/C reads like this: (endpoint: mean survival time, dose: 75.0 mg/kg/injection, schedule: Q01DX001 (ip), vehicle: saline with Tween-80) 95 % of control; (endpoint: mean survival time, dose: 150.0 mg/kg/injection, schedule: Q01DX001 (ip), vehicle: saline with Tween-80) 96 % of control; (endpoint: mean survival time, dose: 300.0 mg/kg/injection, schedule: Q01DX001 (ip), vehicle: saline with Tween-80) 102 % of control.

Consider `O=C1C=CC(=Nc2ccccc2)O1`, for which the T/C is, setting by setting: (endpoint: mean survival time, dose: 2.5 mg/kg/injection, schedule: Q01DX009 (ip), vehicle: saline with Tween-80) 96 % of control; (endpoint: mean survival time, dose: 2.5 mg/kg/injection, schedule: Q04DX003 (ip), vehicle: saline with Tween-80) 101 % of control; (endpoint: mean survival time, dose: 5.0 mg/kg/injection, schedule: Q01DX009 (ip), vehicle: saline with Tween-80) 102 % of control; (endpoint: mean survival time, dose: 5.0 mg/kg/injection, schedule: Q04DX003 (ip), vehicle: saline with Tween-80) 101 % of control; (endpoint: mean survival time, dose: 10.0 mg/kg/injection, schedule: Q01DX009 (ip), vehicle: saline with Tween-80) 93 % of control; (endpoint: mean survival time, dose: 10.0 mg/kg/injection, schedule: Q04DX003 (ip), vehicle: saline with Tween-80) 98 % of control.

Take `ClCc1c2c(cc3c1CCCC3)CCCC2`: the T/C runs as follows: under setting [1], 105 % of control; under setting [2], 93 % of control.

On to `Cc1cccc(C2=NCCN2)c1C`, for which the T/C (endpoint: mean survival time, dose: 5.0 mg/kg/injection, schedule: Q01DX001 (ip), vehicle: saline with Tween-80) is 95 % of control; the T/C (endpoint: mean survival time, dose: 10.0 mg/kg/injection, schedule: Q01DX001 (ip), vehicle: saline with Tween-80) was 97 % of control; the T/C (endpoint: mean survival time, dose: 20.0 mg/kg/injection, schedule: Q01DX001 (ip), vehicle: saline with Tween-80) is 97 % of control.

As for `COC(=O)C(CSC(c1ccccc1)(c1ccccc1)c1ccccc1)NC(=O)C(CC(N)=O)NC(=O)OCc1ccccc1` (stereo not drawn) (Cbz-Asn-Cys(Trt)-OMe; configuration not given here), the T/C (endpoint: median survival time, dose: 12.5 mg/kg/injection, schedule: Q01DX009 (ip), vehicle: distilled water + Tween-80) was 101 % of control; the T/C (endpoint: median survival time, dose: 25.0 mg/kg/injection, schedule: Q01DX009 (ip), vehicle: distilled water + Tween-80) is 108 % of control; the T/C (endpoint: median survival time, dose: 50.0 mg/kg/injection, schedule: Q01DX009 (ip), vehicle: distilled water + Tween-80) was 113 % of control and 107 % of control; the T/C (endpoint: median survival time, dose: 100.0 mg/kg/injection, schedule: Q01DX009 (ip), vehicle: distilled water + Tween-80) is 114 % of control; the T/C (endpoint: median survival time, dose: 200.0 mg/kg/injection, schedule: Q01DX009 (ip), vehicle: distilled water + Tween-80) was 162 % of control.

In the case of `NC(=O)c1cc(NCCN2CCCCC2)c([N+](=O)[O-])cc1[N+](=O)[O-]`, the T/C reads like this: (endpoint: mean survival time, dose: 100.0 mg/kg/injection, schedule: Q04DX002 (ip), vehicle: saline with Tween-80) 95 % of control; (endpoint: mean survival time, dose: 200.0 mg/kg/injection, schedule: Q04DX002 (ip), vehicle: saline with Tween-80) 95 % of control; (endpoint: mean survival time, dose: 400.0 mg/kg/injection, schedule: Q04DX002 (ip), vehicle: saline with Tween-80) 95 % of control.

In the case of `O=CN/N=C/c1ccc2c(c1)CCC2`, the T/C by setting is: under setting [1], 107 % of control; under setting [2], 96 % of control; under setting [3], 96 % of control.

Consider `O=C(CCNC(=O)OCc1ccccc1)NC(CSCc1ccccc1)C(=O)O` (stereo not given), for which the T/C (endpoint: mean survival time, dose: 25.0 mg/kg/injection, schedule: Q01DX005 (ip), vehicle: water) is 101 % of control; the T/C (endpoint: mean survival time, dose: 50.0 mg/kg/injection, schedule: Q01DX005 (ip), vehicle: water) is 106 % of control; the T/C (endpoint: mean survival time, dose: 100.0 mg/kg/injection, schedule: Q01DX005 (ip), vehicle: water) is 101 % of control; the T/C (endpoint: mean survival time, dose: 200.0 mg/kg/injection, schedule: Q01DX005 (ip), vehicle: water) was 108 % of control.

On to `O=P(O)(CO)CO`, for which the T/C under setting [4] is 95 % of control, the T/C under setting [5] is 101 % of control and the T/C under setting [6] is 95 % of control.

`Nc1ncc(CCS)c(=O)[nH]1`: the T/C by setting is: (endpoint: mean survival time, dose: 100.0 mg/kg/injection, schedule: Q01DX001 (ip), vehicle: saline) 97 % of control; (endpoint: mean survival time, dose: 200.0 mg/kg/injection, schedule: Q01DX001 (ip), vehicle: saline) 98 % of control.

For `COc1ccc2c(ccc3oc([N+](=O)[O-])cc32)c1`, the T/C is, setting by setting: (endpoint: median survival time, dose: 6.25 mg/kg/injection, schedule: Q01DX009 (ip), vehicle: saline with Tween-80) 105 % of control; (endpoint: median survival time, dose: 12.5 mg/kg/injection, schedule: Q01DX009 (ip), vehicle: saline with Tween-80) 105 % of control; (endpoint: median survival time, dose: 25.0 mg/kg/injection, schedule: Q01DX009 (ip), vehicle: saline with Tween-80) 105 % of control; (endpoint: median survival time, dose: 50.0 mg/kg/injection, schedule: Q01DX009 (ip), vehicle: saline with Tween-80) 105 % of control; (endpoint: median survival time, dose: 100.0 mg/kg/injection, schedule: Q01DX009 (ip), vehicle: saline with Tween-80) 107 % of control; (endpoint: median survival time, dose: 200.0 mg/kg/injection, schedule: Q01DX009 (ip), vehicle: saline with Tween-80) 92 % of control.

`OC1(Cc2ccccc2)CCCCCC1`: the T/C by setting is: (endpoint: mean survival time, dose: 100.0 mg/kg/injection, schedule: Q04DX002 (ip), vehicle: other) 95 % of control; (endpoint: mean survival time, dose: 200.0 mg/kg/injection, schedule: Q04DX002 (ip), vehicle: other) 92 % of control; (endpoint: mean survival time, dose: 400.0 mg/kg/injection, schedule: Q04DX002 (ip), vehicle: other) 92 % of control.

Take `C/C=C/CNc1ccccc1`: the T/C under setting [4] is 102 % of control; the T/C under setting [5] was 101 % of control; the T/C under setting [1] is 95 % of control; the T/C under setting [6] was 96 % of control; the T/C under setting [2] is 97 % of control.

Take `O=C1OC2CCCCC2c2ccccc21` (stereo not given): the T/C runs as follows: under setting [1], 98 % of control; under setting [2], 96 % of control; under setting [3], 98 % of control.

Turning to `CC[C@@]1(O)C[C@H](OC2CC(N(C)C)C(OC3CC(O)C(O[C@@H]4O[C@@H](C)C(=O)C=C4N)C(C)O3)C(C)O2)c2c(cc3c(c2O)C(=O)c2c(O)ccc(O)c2C3=O)[C@H]1C(=O)OC` (stereo not given in full), the T/C is, setting by setting: (endpoint: mean survival time, dose: 0.02 mg/kg/injection, schedule: Q01DX009 (ip), vehicle: suspension in saline) 102 % of control; (endpoint: mean survival time, dose: 0.05 mg/kg/injection, schedule: Q01DX009 (ip), vehicle: suspension in saline) 96 % of control; (endpoint: mean survival time, dose: 0.1 mg/kg/injection, schedule: Q01DX009 (ip), vehicle: suspension in saline) 103 % of control; (endpoint: mean survival time, dose: 0.2 mg/kg/injection, schedule: Q01DX009 (ip), vehicle: suspension in saline) 115 % of control; (endpoint: mean survival time, dose: 0.4 mg/kg/injection, schedule: Q01DX009 (ip), vehicle: suspension in saline) 108 % of control; (endpoint: mean survival time, dose: 0.8 mg/kg/injection, schedule: Q01DX009 (ip), vehicle: suspension in saline) 123 % of control. In addition, the T/C (endpoint: mean survival time, dose: 1.6 mg/kg/injection, schedule: Q01DX009 (ip), vehicle: suspension in saline) was 111 % of control.

Consider `CC(C)C(O)C(C)[N+](=O)[O-]` (stereo not given), for which the T/C (endpoint: mean survival time, dose: 25.0 mg/kg/injection, schedule: Q01DX001 (ip), vehicle: saline with Tween-80) is 86 % of control and the T/C (endpoint: mean survival time, dose: 50.0 mg/kg/injection, schedule: Q01DX001 (ip), vehicle: saline with Tween-80) was 96 % of control.
